Experimental data as given in PMC6097184 (Clinical cancer research : an official journal of the …, 2017).

Legend:
human OAT3 = molecular target: T1, human OAT3 (Homo sapiens, UniProt Q8TCC7); assay: cellular uptake in HEK293 cells overexpressing OAT3
T1 sequence (Q8TCC7 1-542): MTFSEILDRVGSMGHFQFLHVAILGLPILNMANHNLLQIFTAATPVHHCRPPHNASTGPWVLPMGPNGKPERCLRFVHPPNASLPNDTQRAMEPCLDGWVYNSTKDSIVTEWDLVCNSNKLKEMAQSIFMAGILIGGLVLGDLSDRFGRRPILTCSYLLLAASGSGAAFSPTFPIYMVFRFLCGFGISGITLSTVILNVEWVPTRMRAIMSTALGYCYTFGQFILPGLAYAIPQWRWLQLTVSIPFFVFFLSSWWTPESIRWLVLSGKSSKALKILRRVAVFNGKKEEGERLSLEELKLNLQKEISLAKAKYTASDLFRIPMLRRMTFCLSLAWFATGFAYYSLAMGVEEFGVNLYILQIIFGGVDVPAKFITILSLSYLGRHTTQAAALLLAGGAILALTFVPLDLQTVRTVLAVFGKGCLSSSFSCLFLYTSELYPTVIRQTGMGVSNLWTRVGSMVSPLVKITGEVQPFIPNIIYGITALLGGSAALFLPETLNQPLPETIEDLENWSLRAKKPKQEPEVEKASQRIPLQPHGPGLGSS

human OATP2B1 = molecular target: T2, human OATP2B1 (Homo sapiens, UniProt O94956); assay: cellular uptake in HEK293 cells overexpressing OATP2B1; settings: 10 μmol/L fluvastatin A
T2 sequence (O94956 1-709): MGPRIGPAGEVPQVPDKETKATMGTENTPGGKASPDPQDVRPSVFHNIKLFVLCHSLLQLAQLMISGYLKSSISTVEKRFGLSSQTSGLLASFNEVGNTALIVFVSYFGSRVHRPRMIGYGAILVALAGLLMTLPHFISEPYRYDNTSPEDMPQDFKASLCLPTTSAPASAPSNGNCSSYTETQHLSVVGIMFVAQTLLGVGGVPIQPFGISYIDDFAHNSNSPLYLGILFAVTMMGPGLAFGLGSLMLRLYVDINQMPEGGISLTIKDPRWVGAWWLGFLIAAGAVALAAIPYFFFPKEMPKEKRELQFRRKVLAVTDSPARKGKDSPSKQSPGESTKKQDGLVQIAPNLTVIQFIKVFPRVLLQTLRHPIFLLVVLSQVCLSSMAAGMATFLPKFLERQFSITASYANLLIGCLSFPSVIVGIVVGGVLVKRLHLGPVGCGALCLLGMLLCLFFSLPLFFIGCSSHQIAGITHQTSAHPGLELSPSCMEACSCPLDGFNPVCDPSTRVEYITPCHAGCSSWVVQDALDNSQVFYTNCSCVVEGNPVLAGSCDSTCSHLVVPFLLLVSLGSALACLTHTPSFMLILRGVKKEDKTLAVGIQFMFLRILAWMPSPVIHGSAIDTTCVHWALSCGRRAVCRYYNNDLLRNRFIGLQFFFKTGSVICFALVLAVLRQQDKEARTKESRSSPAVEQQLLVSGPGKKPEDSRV

[1] = assay type: in vivo; settings: human, po, 400 mg, range, 20 patients with glioblastoma, single oral dose 100, 200 or 400 mg
[2] = fraction unbound in plasma; assay type: in vitro ADME; settings: human, patient plasma, fu,p, mean ± SD, plasma of 20 patients with glioblastoma
[3] = physicochemical parameters from literature; settings: high permeability and low solubility
Wee1 tyrosine kinase = settings: ref https://ncats.nih.gov/files/AZD1775.pdf; cited from earlier work
[4] = test system: DNA damage and G2-checkpoint escape; settings: ref https://ncats.nih.gov/files/AZD1775.pdf; cited from earlier work

Kp ([1]; tumor / plasma (total), total tumor-to-plasma concentration ratio (Kp)) | Kp uu ([1]; tumor / plasma (unbound), unbound tumor-to-plasma concentration ratio (Kp,uu)) | fraction unbound [2] | Biopharmaceutics Classification System (BCS) class [3] | Compound | cellular uptake in OAT3 cells in presence of inhibitor (human OAT3; 50 μmol/L probenecid) | cellular uptake in HEK293 cells overexpressing OAT3 compared with vector control (human OAT3; no inhibitor) | cellular uptake in OATP2B1 cells in presence of inhibitor (human OATP2B1) | enzyme IC50 for inhibiting Wee1 activity (Wee1 tyrosine kinase) [µg/mL] | IC50 for inducing DNA damage and G2-checkpoint escape in cell-based assays [4] [µg/mL]
– | – | – | – | C[C@]12CC[C@@H]3c4ccc(OS(=O)(=O)O)cc4CC[C@H]3[C@@H]1CCC2=O [estrone-3-sulfate] | reduced estrone-3-sulfate uptake to a level similar to that in the vector control | significantly higher | reduced estrone-3-sulfate uptake to a level similar to that in the vector control | – | –
3.8 to 40.4 | 1.3 to 24.4 | 0.182 ± 0.024 | class II | C=CCn1c(=O)c2cnc(Nc3ccc(N4CCN(C)CC4)cc3)nc2n1-c1cccc(C(C)(C)O)n1 [AZD1775] | – | – | – | 0.0026 | ~0.04
